Results from US10696686B2, “Herbicidally active (alkynyl-phenyl)-substituted cyclic dione compounds and derivatives thereof” (Syngenta Limited, priority 2013, dated 2020).

Experiments:
Assay in all cases: Biological Example 3 glasshouse assay using various adjuvant systems, post-emergence foliar spray
Format in all cases: in vivo
Settings in all cases: 8 g/ha
[1] = system: Digitaria sanguinalis (DIGSA)
Experimental: (§1) Post-emergence foliar spray application, 200 L/ha, usually one or two replicates for the weeds (depending on application rate), and two replicates for soybean.
(§2) Standard warm conditions (tropical), in glasshouse. Specifically, the glasshouse bay conditions are 24° C./18° C. day/night; 16/8 hours light/dark; 65% humidity.
(§3) The herbicidal application takes place at the following growth stages for plants which include inter alia one or more of the following plants (usually the herbicidal application takes place on at least the following plants: DIGSA, ELEIN, SETFA, ZEAMX, GLXMA Nikko, and GLXMA TMG133, and often also either BRADC or BRAPP):
Digitaria sanguinalis (DIGSA)—growth stage 12 or 13
(§4) Each test compound is applied with one of the following adjuvant systems (all percentages are final concentrations in the aqueous spray mixture):
(§5) Adjuvant system 1: 0.5% v/v Adigor™ *, 1.0% v/v AMS (ammonium sulphate) and 12.5% v/v IPA (isopropyl alcohol).
(§6) Adjuvant system 1A: 0.5% v/v Adigor™ * and 12.5% v/v IPA (isopropyl alcohol).
(§7) CAS Registry no. […] A visual assessment of the % herbicidal damage is made 7 and 14 Days After herbicide Application (DAA) (or, in a minority of cases, 7 and 15 DAA), and the results are recorded as % visual herbicidal damage where 0%=no damage to plants and 100%=plant totally killed. *** Adjuvant system=either Adigor™ or Hexamoll DINCH™ or tris-(2-ethylhexyl) phosphate each at 0.5% v/v, and 12.5% v/v IPA (isopropyl alcohol), and 1.0% v/v AMS (ammonium sulphate); or 0.5% v/v Adigor™ and 12.5% v/v IPA (isopropyl alcohol); all percentages are final concentrations in the aqueous spray mixture. […]
The percentages of herbicidal damage/plant control, at 14 Days After herbicide Application (DAA) (or, in a minority of cases, at 15 DAA), for the Compounds tested and for some of the plants tested, were in the following percentage ranges. […] Phytotoxicity on Glycine max (GLXMA, Soybean) Cultivar “TMG133” Glycine max (GLXMA, soybean) cultivar “TMG133” is Roundup Ready™ glyphosate-tolerant soybean cultivar TMG133, and is typically available from Monsanto in Brazil. […]

[2] = system: Zea mays (ZEAMX, maize, corn) cultivar Garland
Experimental: as §1, §2, §3
Zea mays (ZEAMX, maize/corn, e.g. can occur as volunteer corn) cultivar “Garland”—growth stage 12 or 13
as §4, §5, §6
CAS Registry no. 166412-78-8), and is usually available from BASF. “Isononyl” in this context is thought to mean a mixture of two or more branched isomers of C9H19. […] A visual assessment of the % herbicidal damage is made 7 and 14 Days After herbicide Application (DAA) (or, in a minority of cases, 7 and 15 DAA), and the results are recorded as % visual herbicidal damage where 0%=no damage to plants and 100%=plant totally killed. *** Adjuvant system=either Adigor™ or Hexamoll DINCH™ or tris-(2-ethylhexyl) phosphate each at 0.5% v/v, and 12.5% v/v IPA (isopropyl alcohol), and 1.0% v/v AMS (ammonium sulphate); or 0.5% v/v Adigor™ and 12.5% v/v IPA (isopropyl alcohol); all percentages are final concentrations in the aqueous spray mixture. […]

Eleusine indica (ELEIN) = system: Eleusine indica (ELEIN)
Experimental: as §1, §2, §3
Eleusine indica (ELEIN)—growth stage 12 or 13
as §4, §5, §6, §7
The percentages of herbicidal damage/plant control, at 14 Days After herbicide Application (DAA) (or, in a minority of cases, at 15 DAA), for the Compounds tested and for some of the plants tested, were in the following percentage ranges. […] Phytotoxicity on Glycine max (GLXMA, Soybean) Cultivar “TMG133” Glycine max (GLXMA, soybean) cultivar “TMG133” is Roundup Ready™ glyphosate-tolerant soybean cultivar TMG133, and is typically available from Monsanto in Brazil.

[3] = 14 DAA (A11: 14 or 15 DAA), adjuvant 0.5% v/v Adigor + 1.0% v/v AMS + 12.5% v/v IPA
[4] = 14 DAA, adjuvant 0.5% v/v Adigor + 12.5% v/v IPA

SMILES	percentage control of Digitaria sanguinalis (DIGSA) [1, 3]	percentage control of Zea mays (ZEAMX, maize, corn) [2, 3]	percentage control of Eleusine indica (ELEIN) (Eleusine indica (ELEIN); [3])	percentage control of (phytotoxicity on) Digitaria sanguinalis (DIGSA) [1, 4]	percentage control of (phytotoxicity on) Zea mays (ZEAMX, maize, corn) [2, 4]	percentage control of (phytotoxicity on) Eleusine indica (ELEIN) (Eleusine indica (ELEIN); [4])
CC#Cc1cc(F)c(C2C(=O)CC(CCSC)CC2=O)c(OC)c1 (stereo not drawn) [Compound A11]	0%	0%	0%	–	–	–
C#CCC1CC(=O)C(c2c(F)cc(C#CC)cc2OC)C1=O (stereo not drawn) [Compound A8, 2-(2-fluoro-6-methoxy-4-prop-1-ynyl-phenyl)-4-prop-2-ynyl-cyclopentane-1,3-dione]	–	–	–	65%	65%	40%
